# Laboratory results taken from ChEMBL document CHEMBL1144513, “Synthesis and SAR study of novel 7-(pyridinium-3-yl)-carbonyl imidazo[5,1-b]thiazol-2-yl carbapenems” (2007).
# What was measured:
# Format in all cases: functional
# Staphylococcus aureus [1] = experiment: Antibacterial activity against Staphylococcus aureus 209P JC1 by agar dilution method
# Staphylococcus aureus [2] = experiment: Antibacterial activity against methicillin-resistant Staphylococcus aureus M126 by agar dilution method
# Staphylococcus aureus [3] = experiment: Antibacterial activity against carbapenem and methicillin-resistant Staphylococcus aureus M126HR by agar dilution method
# Streptococcus pneumoniae = experiment: Antibacterial activity against penicillin-resistant Streptococcus pneumoniae KK133 by agar dilution method
# Escherichia coli = experiment: Antibacterial activity against Escherichia coli NIHJ JC2 by agar dilution method
# Klebsiella pneumoniae = experiment: Antibacterial activity against Klebsiella pneumoniae GN69 by agar dilution method
# Moraxella catarrhalis = experiment: Antibacterial activity against Moraxella catarrhalis W-0500 by agar dilution method
# Haemophilus influenzae = experiment: Antibacterial activity against beta-lactamase-negative ampicillin-resistant Haemophilus influenzae 870 by agar dilution method
smiles,measurement,setting,value
Cc1nc(C(=O)c2ccc[n+](CC(N)=O)c2)c2sc(C3=C(C(=O)[O-])N4C(=O)[C@H]([C@@H](C)O)[C@H]4[C@H]3C)cn12,MIC,Staphylococcus aureus [1],0.016 µg/mL
same,MIC,Staphylococcus aureus [2],1 µg/mL
same,MIC,Staphylococcus aureus [3],4 µg/mL
same,MIC,Streptococcus pneumoniae,0.031 µg/mL
same,MIC,Escherichia coli,0.25 µg/mL
same,MIC,Klebsiella pneumoniae,0.5 µg/mL
same,MIC,Moraxella catarrhalis,0.008 µg/mL
same,MIC,Haemophilus influenzae,0.063 µg/mL
C[C@@H](O)[C@H]1C(=O)N2C(C(=O)[O-])=C(c3cn4cnc(C(=O)c5ccc[n+](CC(=O)C(F)(F)F)c5)c4s3)[C@H](C)[C@H]12,MIC,Staphylococcus aureus [1],0.016 µg/mL
same,MIC,Staphylococcus aureus [2],1 µg/mL
same,MIC,Staphylococcus aureus [3],4 µg/mL
same,MIC,Streptococcus pneumoniae,0.063 µg/mL
same,MIC,Escherichia coli,0.125 µg/mL
same,MIC,Klebsiella pneumoniae,0.25 µg/mL
same,MIC,Moraxella catarrhalis,0.031 µg/mL
same,MIC,Haemophilus influenzae,0.063 µg/mL
C[C@@H](O)[C@H]1C(=O)N2C(C(=O)[O-])=C(c3cn4c(Cl)nc(C(=O)c5ccc[n+](CC(N)=O)c5)c4s3)[C@H](C)[C@H]12,MIC,Staphylococcus aureus [1],0.008 µg/mL
same,MIC,Staphylococcus aureus [2],0.5 µg/mL
same,MIC,Staphylococcus aureus [3],2 µg/mL
same,MIC,Streptococcus pneumoniae,0.031 µg/mL
same,MIC,Escherichia coli,1 µg/mL
same,MIC,Klebsiella pneumoniae,2 µg/mL
same,MIC,Moraxella catarrhalis,0.016 µg/mL
same,MIC,Haemophilus influenzae,0.063 µg/mL
C[C@@H](O)[C@H]1C(=O)N2C(C(=O)[O-])=C(c3cn4cnc(C(=O)c5ccc[n+](CCS(C)(=O)=O)c5)c4s3)[C@H](C)[C@H]12,MIC,Staphylococcus aureus [1],≤ 0.008 µg/mL
same,MIC,Staphylococcus aureus [2],1 µg/mL
same,MIC,Staphylococcus aureus [3],4 µg/mL
same,MIC,Streptococcus pneumoniae,0.031 µg/mL
same,MIC,Escherichia coli,0.5 µg/mL
same,MIC,Klebsiella pneumoniae,0.5 µg/mL
same,MIC,Moraxella catarrhalis,0.016 µg/mL
same,MIC,Haemophilus influenzae,0.063 µg/mL
C[C@@H](O)[C@H]1C(=O)N2C(C(=O)O)=C(c3cn4cnc(C(=O)c5cccnc5)c4s3)[C@H](C)[C@H]12,MIC,Staphylococcus aureus [1],≤ 0.008 µg/mL
same,MIC,Staphylococcus aureus [2],1 µg/mL
same,MIC,Staphylococcus aureus [3],4 µg/mL
same,MIC,Streptococcus pneumoniae,0.031 µg/mL
same,MIC,Escherichia coli,1 µg/mL
same,MIC,Klebsiella pneumoniae,2 µg/mL
same,MIC,Moraxella catarrhalis,0.016 µg/mL
same,MIC,Haemophilus influenzae,0.031 µg/mL
C[C@@H](O)[C@H]1C(=O)N2C(C(=O)O)=C(c3cn4cnc(C(=O)[C@@H]5CCCN5)c4s3)[C@H](C)[C@H]12,MIC,Staphylococcus aureus [1],≤ 0.008 µg/mL
same,MIC,Staphylococcus aureus [2],1 µg/mL
same,MIC,Staphylococcus aureus [3],4 µg/mL
same,MIC,Streptococcus pneumoniae,0.063 µg/mL
same,MIC,Escherichia coli,0.125 µg/mL
same,MIC,Klebsiella pneumoniae,0.125 µg/mL
same,MIC,Moraxella catarrhalis,0.031 µg/mL
same,MIC,Haemophilus influenzae,0.125 µg/mL
C[C@@H](O)[C@H]1C(=O)N2C(C(=O)O)=C(c3cn4cnc(C(=O)c5cnc6ccccc6c5)c4s3)[C@H](C)[C@H]12,MIC,Staphylococcus aureus [1],≤ 0.008 µg/mL
same,MIC,Staphylococcus aureus [2],0.016 µg/mL
same,MIC,Staphylococcus aureus [3],2 µg/mL
same,MIC,Streptococcus pneumoniae,0.031 µg/mL
same,MIC,Escherichia coli,4 µg/mL
same,MIC,Klebsiella pneumoniae,8 µg/mL
same,MIC,Moraxella catarrhalis,0.031 µg/mL
same,MIC,Haemophilus influenzae,0.125 µg/mL
C[C@@H](O)[C@H]1C(=O)N2C(C(=O)O)=C(c3cn4cnc(C(=O)c5cn(C)c6ccccc56)c4s3)[C@H](C)[C@H]12,MIC,Staphylococcus aureus [1],0.008 µg/mL
same,MIC,Staphylococcus aureus [2],0.031 µg/mL
same,MIC,Staphylococcus aureus [3],8 µg/mL
same,MIC,Streptococcus pneumoniae,0.125 µg/mL
same,MIC,Escherichia coli,4 µg/mL
same,MIC,Klebsiella pneumoniae,8 µg/mL
same,MIC,Moraxella catarrhalis,0.016 µg/mL
same,MIC,Haemophilus influenzae,0.125 µg/mL
C[C@@H](O)[C@H]1C(=O)N2C(C(=O)O)=C(c3cn4cnc(C(=O)C5CCCCN5)c4s3)[C@H](C)[C@H]12 (some centres undefined),MIC,Staphylococcus aureus [1],0.016 µg/mL
same,MIC,Staphylococcus aureus [2],1 µg/mL
same,MIC,Staphylococcus aureus [3],4 µg/mL
same,MIC,Streptococcus pneumoniae,0.125 µg/mL
same,MIC,Escherichia coli,0.125 µg/mL
same,MIC,Klebsiella pneumoniae,0.25 µg/mL
same,MIC,Moraxella catarrhalis,0.063 µg/mL
same,MIC,Haemophilus influenzae,0.25 µg/mL
CCc1nc(C(=O)c2ccc[n+](CC(N)=O)c2)c2sc(C3=C(C(=O)[O-])N4C(=O)[C@H]([C@@H](C)O)[C@H]4[C@H]3C)cn12,MIC,Staphylococcus aureus [1],0.016 µg/mL
same,MIC,Staphylococcus aureus [2],1 µg/mL
same,MIC,Staphylococcus aureus [3],4 µg/mL
same,MIC,Streptococcus pneumoniae,0.031 µg/mL
same,MIC,Escherichia coli,2 µg/mL
same,MIC,Klebsiella pneumoniae,4 µg/mL
same,MIC,Moraxella catarrhalis,0.031 µg/mL
same,MIC,Haemophilus influenzae,0.063 µg/mL
C[C@@H](O)[C@H]1C(=O)N2C(C(=O)[O-])=C(c3cn4cnc(C(=O)c5ccc[n+](CC(N)=O)c5)c4s3)[C@H](C)[C@H]12,MIC,Staphylococcus aureus [1],≤ 0.008 µg/mL
same,MIC,Staphylococcus aureus [2],0.5 µg/mL
same,MIC,Staphylococcus aureus [3],2 µg/mL
same,MIC,Streptococcus pneumoniae,0.031 µg/mL
same,MIC,Escherichia coli,0.031 µg/mL
same,MIC,Klebsiella pneumoniae,0.063 µg/mL
same,MIC,Moraxella catarrhalis,0.016 µg/mL
same,MIC,Haemophilus influenzae,0.063 µg/mL
C[C@@H](O)[C@H]1C(=O)N2C(C(=O)[O-])=C(c3cn4c(C5CC5)nc(C(=O)c5ccc[n+](CC(N)=O)c5)c4s3)[C@H](C)[C@H]12,MIC,Staphylococcus aureus [1],0.016 µg/mL
same,MIC,Staphylococcus aureus [2],0.5 µg/mL
same,MIC,Staphylococcus aureus [3],2 µg/mL
same,MIC,Streptococcus pneumoniae,0.031 µg/mL
same,MIC,Escherichia coli,4 µg/mL
same,MIC,Klebsiella pneumoniae,4 µg/mL
same,MIC,Moraxella catarrhalis,0.016 µg/mL
same,MIC,Haemophilus influenzae,0.031 µg/mL
C[C@@H](O)[C@H]1C(=O)N2C(C(=O)[O-])=C(c3cn4cnc(C(=O)c5ccc[n+](CCNS(N)(=O)=O)c5)c4s3)[C@H](C)[C@H]12,MIC,Staphylococcus aureus [1],≤ 0.008 µg/mL
same,MIC,Staphylococcus aureus [2],1 µg/mL
same,MIC,Staphylococcus aureus [3],2 µg/mL
same,MIC,Streptococcus pneumoniae,0.031 µg/mL
same,MIC,Escherichia coli,0.031 µg/mL
same,MIC,Klebsiella pneumoniae,0.063 µg/mL
same,MIC,Moraxella catarrhalis,0.016 µg/mL
same,MIC,Haemophilus influenzae,0.063 µg/mL
CN[C@H](CC(C)C)C(=O)N[C@H]1C(=O)N[C@@H](CC(N)=O)C(=O)N[C@H]2C(=O)N[C@H]3C(=O)N[C@H](C(=O)N[C@H](C(=O)O)c4cc(O)cc(O)c4-c4cc3ccc4O)[C@H](O)c3ccc(c(Cl)c3)Oc3cc2cc(c3O[C@@H]2O[C@H](CO)[C@@H](O)[C@H](O)[C@H]2O[C@H]2C[C@](C)(N)[C@H](O)[C@H](C)O2)Oc2ccc(cc2Cl)[C@H]1O [VANCOMYCIN],MIC,Streptococcus pneumoniae,0.5 µg/mL
same,MIC,Escherichia coli,> 128 µg/mL
same,MIC,Klebsiella pneumoniae,> 128 µg/mL
same,MIC,Moraxella catarrhalis,64 µg/mL
same,MIC,Haemophilus influenzae,> 128 µg/mL
